The source of these data is patent US11078197B2, “5-membered and bicyclic heterocyclic amides as inhibitors of rock” (BRISTOL-MYERS SQUIBB COMPANY, priority 2017, dated 2021).

The target of the assay is ROCK2 (Homo sapiens (Human), UniProt O75116). Put plainly: ROCK2 assay (peptide phosphorylation, LABCHIP 3000 Reader). It counts as biochemical. The note with it: 5 μM ATP, 1.5 μM peptide substrate, dose-response. The procedure: After incubation, the reaction was terminated by the addition of EDTA and the phosphorylated and non-phosphorylated peptides separated using a LABCHIP®3000 Reader (Caliper Life Sciences). […] Compounds were tested in dose-response format, and the inhibition of kinase activity was calculated at each concentration of compound. […] Representative Examples were tested in the ROCK2 assay described above and found having ROCK2 inhibitory activity.
ROCK2, sequence (O75116 whole entry, species assumed): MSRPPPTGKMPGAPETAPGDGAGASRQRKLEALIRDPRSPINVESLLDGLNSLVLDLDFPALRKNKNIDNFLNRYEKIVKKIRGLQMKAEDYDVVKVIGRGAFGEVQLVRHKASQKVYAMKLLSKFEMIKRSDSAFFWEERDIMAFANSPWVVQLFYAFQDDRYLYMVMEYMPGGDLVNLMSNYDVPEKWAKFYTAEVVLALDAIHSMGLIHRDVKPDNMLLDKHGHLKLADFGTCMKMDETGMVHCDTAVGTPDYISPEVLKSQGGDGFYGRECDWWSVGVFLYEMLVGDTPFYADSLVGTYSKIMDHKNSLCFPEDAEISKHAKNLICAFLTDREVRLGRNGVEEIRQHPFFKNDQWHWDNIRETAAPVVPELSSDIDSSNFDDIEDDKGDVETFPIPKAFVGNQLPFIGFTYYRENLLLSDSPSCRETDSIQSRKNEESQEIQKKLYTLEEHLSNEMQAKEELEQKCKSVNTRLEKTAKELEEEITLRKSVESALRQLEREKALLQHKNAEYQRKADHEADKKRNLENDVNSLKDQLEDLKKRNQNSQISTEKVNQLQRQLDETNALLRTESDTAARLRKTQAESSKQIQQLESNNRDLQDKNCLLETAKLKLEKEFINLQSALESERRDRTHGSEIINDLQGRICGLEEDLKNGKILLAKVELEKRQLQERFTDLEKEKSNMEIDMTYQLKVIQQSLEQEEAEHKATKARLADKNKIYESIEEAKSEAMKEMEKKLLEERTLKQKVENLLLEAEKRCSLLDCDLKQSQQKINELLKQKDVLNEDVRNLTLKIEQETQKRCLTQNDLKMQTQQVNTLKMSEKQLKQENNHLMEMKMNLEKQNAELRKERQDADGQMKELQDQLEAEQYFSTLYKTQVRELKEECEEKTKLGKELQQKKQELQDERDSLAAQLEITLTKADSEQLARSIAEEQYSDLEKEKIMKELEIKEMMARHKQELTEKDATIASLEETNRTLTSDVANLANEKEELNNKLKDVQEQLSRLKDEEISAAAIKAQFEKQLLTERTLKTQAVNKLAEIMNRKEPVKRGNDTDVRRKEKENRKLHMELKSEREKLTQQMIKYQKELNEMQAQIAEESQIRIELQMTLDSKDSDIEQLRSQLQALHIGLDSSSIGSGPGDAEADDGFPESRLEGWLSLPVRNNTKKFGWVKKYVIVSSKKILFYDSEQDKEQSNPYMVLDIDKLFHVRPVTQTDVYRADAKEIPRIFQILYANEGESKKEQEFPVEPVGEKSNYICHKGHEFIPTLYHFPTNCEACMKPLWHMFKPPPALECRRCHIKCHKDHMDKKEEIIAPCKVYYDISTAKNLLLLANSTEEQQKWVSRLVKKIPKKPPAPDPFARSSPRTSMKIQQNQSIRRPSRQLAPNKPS
A word on the IC50: it is the concentration that inhibits the measured activity by half. For the compound `Cn1cc(C(N)=O)c(O[C@H]2C[C@@]3(C[C@H](NC(=O)c4nn(C(F)F)c5cc(OCC(C)(C)O)ccc45)C3)C2)n1` (stereo partly drawn) [Example 36, N-{(aR)-6-[(4-carbamoyl-1-methyl-1H-pyrazol-3-yl)oxy]spiro[3.3]heptan-2-yl}-1-(difluoromethyl)-6-(2-hydroxy-2-methylpropoxy)-1H-indazole-3-carboxamide], the concentration for half-maximal inhibition (IC50) came to 22.4 nM.
In the case of `Cc1c(C(N)=O)c(O[C@H]2C[C@@]3(C[C@H](NC(=O)c4cnn5c(C6CC6)c(OCC(C)(C)O)ccc45)C3)C2)nn1C` (stereo partly drawn) [Example 37, 3-({(aR)-6-[7-cyclopropyl-6-(2-hydroxy-2-methylpropoxy)pyrazolo[1,5-a]pyridine-3-amido]spiro[3.3]heptan-2-yl}oxy)-1,5-dimethyl-1H-pyrazole-4-carboxamide], the IC50 is 259 nM.
`Cc1c(C(=O)N[C@H]2C[C@]3(C2)C[C@H](Oc2nn(-c4ccccc4)cc2C(N)=O)C3)cnn1-c1ccc(C#N)cc1` (stereo partly drawn) [Example 38, 3-({(aR)-6-[1-(4-cyanophenyl)-5-methyl-1H-pyrazole-4-amido]spiro[3.3]heptan-2-yl}oxy)-1-phenyl-1H-pyrazole-4-carboxamide] came in with an IC50 of 426 nM.
The value for `CC(C)(O)COc1ccc2c(C(=O)N[C@H]3C[C@]4(C3)C[C@H](Oc3c(C(N)=O)cnn3C(F)F)C4)cnn2c1C1CC1` (stereo partly drawn) [Example 39, 5-({(aR)-6-[7-cyclopropyl-6-(2-hydroxy-2-methylpropoxy)pyrazolo [1,5-a]pyridine-3-amido]spiro[3.3]heptan-2-yl}oxy)-1-(difluoromethyl)-1H-pyrazole-4-carboxamide] was 2400 nM; that for `NC(=O)c1cn(-c2ccccc2)nc1O[C@H]1C[C@@]2(C[C@H](NC(=O)c3cnn4cc(OCCC(F)(F)F)ccc34)C2)C1` (stereo partly drawn) [Example 40, 1-phenyl-3-{[(aR)-6-[6-(3,3,3-trifluoropropoxy)pyrazolo[1,5-a]pyridine-3-amido]spiro[3.3]heptan-2-yl]oxy}-1H-pyrazole-4-carboxamide] was 136 nM; that for `N#Cc1cc(C(=O)N[C@H]2C[C@]3(C2)C[C@H](Oc2nn(-c4ccccc4)cc2C(N)=O)C3)cc(-c2cnn(C(F)F)c2)c1` (stereo partly drawn) [Example 41, 1-phenyl-3-{[(aR)-6-{3-cyano-5-[1-(difluoromethyl)-1H-pyrazol-4-yl]benzamido}spiro [3.3]heptan-2-yl]oxy}-1H-pyrazole-4-carboxamide] was 55.6 nM.
Next, `CC(C)(O)COc1ccc2c(C(=O)N[C@H]3C[C@]4(C3)C[C@H](Oc3nn(-c5ccccc5)cc3C(N)=O)C4)nn(C(F)F)c2c1` (stereo partly drawn) [Example 42, 1-(difluoromethyl)-6-(2-hydroxy-2-methylpropoxy)-N-[(aR)-6-[(4-carbamoyl-1-phenyl-1H-pyrazol-3-yl)oxy]spiro[3.3]heptan-2-yl]-1H-indazole-3-carboxamide]: 13.7 nM; `Cc1nc(O[C@H]2C[C@@]3(C[C@H](NC(=O)c4cnn(-c5ccc(C#N)cc5)c4C)C3)C2)c(C(N)=O)s1` (stereo partly drawn) [Example 43, 2-methyl-4-{[(aR)-6-[1-(4-cyanophenyl)-5-methyl-1H-pyrazole-4-amido]spiro[3.3]heptan-2-yl]oxy}-1,3-thiazole-5-carboxamide]: 119 nM; `Cc1c(C(=O)N[C@H]2C[C@]3(C2)C[C@H](Oc2nc(C4CC4)sc2C(N)=O)C3)cnn1-c1ccc(C#N)cc1` (stereo partly drawn) [Example 44, 2-cyclopropyl-4-{[(aR)-6-[1-(4-cyanophenyl)-5-methyl-1H-pyrazole-4-amido]spiro[3.3]heptan-2-yl]oxy}-1,3-thiazole-5-carboxamide]: 25.2 nM.
The value for `Cc1c(C(=O)N[C@H]2C[C@]3(C2)C[C@H](Oc2nc(C4CC4)sc2C(N)=O)C3)cnn1-c1ccc(Cl)cc1` (stereo partly drawn) [Example 45, 2-cyclopropyl-4-{[(aR)-6-[1-(4-chlorophenyl)-5-methyl-1H-pyrazole-4-amido]spiro[3.3]heptan-2-yl]oxy}-1,3-thiazole-5-carboxamide] was 25 nM; that for `Cc1c(C(=O)N[C@H]2C[C@]3(C2)C[C@H](Oc2nn(C)cc2C(N)=O)C3)cnn1-c1ccc(C#N)cc1` (stereo partly drawn) [Example 46, 1-(4-cyanophenyl)-5-methyl-N-[(aR)-6-[(4-carbamoyl-1-methyl-1H-pyrazol-3-yl)oxy]spiro[3.3]heptan-2-yl]-1H-pyrazole-4-carboxamide] was 359 nM; that for `Cc1c(C(=O)N[C@H]2C[C@]3(C2)C[C@H](Oc2nn(C)cc2C(N)=O)C3)cnn1-c1ccc(Cl)cc1` (stereo partly drawn) [Example 47, 1-(4-chlorophenyl)-5-methyl-N-[(aR)-6-[(4-carbamoyl-1-methyl-1H-pyrazol-3-yl)oxy]spiro[3.3]heptan-2-yl]-1H-pyrazole-4-carboxamide] was 113 nM.
The compound `COc1ccc(-n2ncc(C(=O)N[C@H]3C[C@]4(C3)C[C@H](Oc3nn(C)cc3C(N)=O)C4)c2C)cn1` (stereo partly drawn) [Example 48, 1-(6-methoxypyridin-3-yl)-5-methyl-N-[(aR)-6-[(4-carbamoyl-1-methyl-1H-pyrazol-3-yl)oxy]spiro[3.3]heptan-2-yl]-1H-pyrazole-4-carboxamide] displayed an IC50 of 685 nM.
The value for `Cc1c(C(=O)N[C@H]2C[C@]3(C2)C[C@H](Oc2nn(-c4ccccc4)cc2C(N)=O)C3)cnn1-c1ccc(Cl)cc1` (stereo partly drawn) [Example 49, 1-phenyl-3-{[(aR)-6-[1-(4-chlorophenyl)-5-methyl-1H-pyrazole-4-amido]spiro[3.3]heptan-2-yl]oxy}-1H-pyrazole-4-carboxainide] was 450 nM.
Next, `COc1ccc(-n2ncc(C(=O)N[C@H]3C[C@]4(C3)C[C@H](Oc3nn(C5CC5)cc3C(N)=O)C4)c2C)cn1` (stereo partly drawn) [Example 50, 1-cyclopropyl-3-{[(aR)-6-[1-(6-methoxypyridin-3-yl)-5-methyl-1H-pyrazole-4-amido]spiro[3.3]heptan-2-yl]oxy}-1H-pyrazole-4-carboxamide]: 322 nM; `Cc1c(C(=O)N[C@H]2C[C@]3(C2)C[C@H](Oc2nn(C4CC4)cc2C(N)=O)C3)cnn1-c1ccc(Cl)cc1` (stereo partly drawn) [Example 51, 1-cyclopropyl-3-{[(aR)-6-[1-(4-chlorophenyl)-5-methyl-1H-pyrazole-4-amido]spiro[3.3]heptan-2-yl]oxy}-1H-pyrazole-4-carboxamide]: 44.8 nM.
Next, `NC(=O)c1cn(C(F)F)nc1O[C@H]1C[C@@]2(C[C@H](NC(=O)c3cnn4cc(OCC(O)(C(F)(F)F)C(F)(F)F)ccc34)C2)C1` (stereo partly drawn) [Example 52, 1-(difluoromethyl)-3-{[(aR)-6-{6-[3,3,3-trifluoro-2-hydxoxy-2-(trifluoromethyl)propoxy]pyrazolo [1,5-a]pyridine-3-amido}spiro[3.3]heptan-2-yl]oxy}-1H-pyrazole-4-carboxamide]: 33.9 nM; `NC(=O)c1cn(C(F)F)nc1O[C@H]1C[C@@]2(C[C@H](NC(=O)c3cnn4cc(OCC(F)(F)F)ccc34)C2)C1` (stereo partly drawn) [Example 53, 1-(difluoromethyl)-3-{[(aR)-6-[6-(2,2,2-trifluoroethoxy)pyrazolo[1,5-a]pyridine-3-amido]spiro[3.3]heptan-2-yl]oxy}-1H-pyrazole-4-carboxamide]: 22 nM.
In the case of `Cc1c(C(=O)N[C@H]2C[C@]3(C2)C[C@H](Oc2nn(C(F)F)cc2C(N)=O)C3)cnn1-c1ccc(C#N)cc1` (stereo partly drawn) [Example 54, 1-(4-cyanophenyl)-5-methyl-N-[(aR)-6-{[4-carbamoyl-1-(difluoromethyl)-1H-pyrazol-3-yl]oxy}spiro[3.3]heptan-2-yl]-1H-pyrazole-4-carboxamide], half-maximal inhibition (IC50) required 253 nM.
The value for `Cc1c(C(=O)N[C@H]2C[C@]3(C2)C[C@H](Oc2nn(C(F)F)cc2C(N)=O)C3)cnn1-c1ccc(Cl)cc1` (stereo partly drawn) [Example 55, 1-(4-chlorophenyl)-5-methyl-N-[(aR)-6-{[4-carbamoyl-1-(difluoromethyl)-1H-pyrazol-3-yl]oxy}spiro[3.3]heptan-2-yl]-1H-pyrazole-4-carboxamide] was 78.3 nM.
The value for `NC(=O)c1cn(C2CC2)nc1O[C@H]1C[C@@]2(C[C@H](NC(=O)c3cnn4cc(OCC(F)(F)F)ccc34)C2)C1` (stereo partly drawn) [Example 56, 1-cyclopropyl-3-{[(aR)-6-[6-(2,2,2-trifluoroethoxy)pyrazolo [1,5-a]pyridine-3-amido]spiro[3.3]heptan-2-yl]oxy}-1H-pyrazole-4-carboxamide] was 53.2 nM; that for `NC(=O)c1cn(C2CC2)nc1O[C@H]1C[C@@]2(C[C@H](NC(=O)c3cnn4cc(OCC(F)F)ccc34)C2)C1` (stereo partly drawn) [Example 57, 1-cyclopropyl-3-{[(aR)-6-[6-(2,2-difluoroethoxy)pyrazolo[1,5-a]pyridine-3-amido]spiro[3.3]heptan-2-yl]oxy}-1H-pyrazole-4-carboxamide] was 15.9 nM.
The value for `NC(=O)c1cn(C2CC2)nc1O[C@H]1C[C@@]2(C[C@H](NC(=O)c3nc(C(F)(F)F)n4ccccc34)C2)C1` (stereo partly drawn) [Example 58, 1-cyclopropyl-3-{[(aR)-6-[3-(trifluoromethyl)imidazo[1,5-a]pyridine-1-amido]spiro[3.3]heptan-2-yl]oxy}-1H-pyrazole-4-carboxamide] was 204 nM; that for `NC(=O)c1cn(C2CC2)nc1O[C@H]1C[C@@]2(C[C@H](NC(=O)c3nc(C(F)(F)F)n4cc(-c5ccc(F)nc5)ccc34)C2)C1` (stereo partly drawn) [Example 59, 1-cyclopropyl-3-{[(aR)-6-[6-(6-fluoropyridin-3-yl)-3-(trifluoromethyl)imidazo[1,5-a]pyridine-1-amido]spiro[3.3]heptan-2-yl]oxy}-1H-pyrazole-4-carboxamide] was 5.3 nM; that for `NC(=O)c1cn(C2CC2)nc1O[C@H]1C[C@@]2(C[C@H](NC(=O)c3nc(C(F)(F)F)n4cc(Br)ccc34)C2)C1` (stereo partly drawn) [Example 60, 1-cyclopropyl-3-{[(aR)-6-[6-bromo-3-(trifluoromethyl)imidazo[1,5-a]pyridine-1-amido]spiro[3.3]heptan-2-yl]oxy}-1H-pyrazole-4-carboxamide] was 35.5 nM.
